Columns and labels:
[1] = system: AlCl3-induced zebrafish AD model; assay: AlCl3-induced zebrafish AD model, behaviour assay; format: in vivo; settings: + 100 μM AlCl3, 3 d; for speed change after light stimulus: model 1.38 mm/s, control 2.56 mm/s; for movement distance during 60 min: model 4968 mm, control 9219 mm
Method: Briefly, the 3–6 dpf zebrafish larvae were randomly placed in a 6-well microplate at a density of 30 zebrafish per well and treated with 100 μM AlCl3 to establish the AD model. […] The control group was maintained in the reverse osmosis water with 0.5% DMSO while the model group was treated with 100 μM AlCl3 containing 0.5% DMSO. […] After 3 d, the distance and speed change after light stimulus alteration were analysed and recorded for three rhythmic light within 60 min (10 min darkness and 10 min illumination alternately) using viewpoint behaviour analyser (Zebralab V3, ViewPoint Life Sciences Co., Ltd., Lyons, France). The protocol for this study involving animals and their maintenance was approved by the Animal Care and Use Committee of Shandong Academy of Sciences (No.00612). Efficacy on motility (%)=[Dsample group−Dmodel group]/[Duntreated group−Dmodel group]×100.
D is the movement distance of zebrafish during 60 min.
Efficacy on speed change (%) = [Vsample group – Vmodel group]/[Vuntreated group – Vmodel group] × 100. V is the average velocity (mm/s) of different groups which was obtained by recording the movement distance of every min for every zebrafish during 60 min. All data are expressed as mean ± SEM and analysed by GraphPad Prism version 7.0 software (Graphpad Software Inc., La Jolla, CA). Differences between groups were examined for statistical significance using one‐way ANOVA with Tukey’s post hoc test.

[2] = biological target: T1, BuChE (Equus caballus, UniProt P81908); assay: Kinetic study of BuChE inhibition (Lineweaver-Burk, secondary plot); format: biochemical
T1 construct: BuChE (10 U/mg from horse serum); purchased Shanghai Yuanye Bio-Technology (Shanghai, China); host or cells: horse serum
T1 sequence (P81908 whole entry): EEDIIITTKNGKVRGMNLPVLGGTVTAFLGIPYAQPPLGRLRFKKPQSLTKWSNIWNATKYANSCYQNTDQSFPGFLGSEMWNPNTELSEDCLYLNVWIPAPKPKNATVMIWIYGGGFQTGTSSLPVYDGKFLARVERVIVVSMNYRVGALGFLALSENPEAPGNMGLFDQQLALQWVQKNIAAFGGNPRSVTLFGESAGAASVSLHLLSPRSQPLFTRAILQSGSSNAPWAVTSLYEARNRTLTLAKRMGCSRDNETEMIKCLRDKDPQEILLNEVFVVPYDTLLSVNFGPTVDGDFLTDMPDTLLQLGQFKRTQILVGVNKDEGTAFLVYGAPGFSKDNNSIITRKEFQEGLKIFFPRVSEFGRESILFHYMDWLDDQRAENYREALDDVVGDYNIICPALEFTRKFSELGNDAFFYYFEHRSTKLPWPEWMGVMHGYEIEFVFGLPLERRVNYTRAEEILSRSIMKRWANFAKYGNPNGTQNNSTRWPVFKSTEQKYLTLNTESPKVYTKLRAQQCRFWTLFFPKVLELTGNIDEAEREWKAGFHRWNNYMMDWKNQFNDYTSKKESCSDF
Method: (§1) To clarify the mechanism of action of aaptamine, reciprocal plots of 1/[velocity] vs. 1/[substrate] (Lineweaver-Burk plots) were constructed at different concentrations of the substrate ATChI or BTChI (0, 1.25, 2.5, 5, 10 and 25 mM) and aaptamine (0, 5, 20 and 40 μM). Meanwhile, the parallel experiment was also carried out without aaptamine. The remaining procedure was the same as that of described in cholinesterases inhibition assay. The data were plotted on a Lineweaver–Burk diagram using Microsoft Excel 2016 to reveal the mechanism of inhibition. The steady-state inhibition constant Ki (intercept on the x-axis) was determined by the secondary plot of slope vs. the concentrations of inhibitor.

[3] = system: nicotinic acetylcholine receptors (nAChRs); settings: ref Kudryavtsev et al. [2014]; cited from earlier work
[4] = biological target: T2, AChE (Electrophorus electricus, UniProt O42275); assay: Surface plasmon resonance (SPR) assay, AChE; format: binding; settings: Biacore T100, steady-state affinity fitting; read-out: Kd (equilibrium dissociation constant) for AChE
T2 construct: AChE (200 U/g from electric eel); purchased Macklin Inc. (Shanghai, China)
T2 sequence (O42275 24-633): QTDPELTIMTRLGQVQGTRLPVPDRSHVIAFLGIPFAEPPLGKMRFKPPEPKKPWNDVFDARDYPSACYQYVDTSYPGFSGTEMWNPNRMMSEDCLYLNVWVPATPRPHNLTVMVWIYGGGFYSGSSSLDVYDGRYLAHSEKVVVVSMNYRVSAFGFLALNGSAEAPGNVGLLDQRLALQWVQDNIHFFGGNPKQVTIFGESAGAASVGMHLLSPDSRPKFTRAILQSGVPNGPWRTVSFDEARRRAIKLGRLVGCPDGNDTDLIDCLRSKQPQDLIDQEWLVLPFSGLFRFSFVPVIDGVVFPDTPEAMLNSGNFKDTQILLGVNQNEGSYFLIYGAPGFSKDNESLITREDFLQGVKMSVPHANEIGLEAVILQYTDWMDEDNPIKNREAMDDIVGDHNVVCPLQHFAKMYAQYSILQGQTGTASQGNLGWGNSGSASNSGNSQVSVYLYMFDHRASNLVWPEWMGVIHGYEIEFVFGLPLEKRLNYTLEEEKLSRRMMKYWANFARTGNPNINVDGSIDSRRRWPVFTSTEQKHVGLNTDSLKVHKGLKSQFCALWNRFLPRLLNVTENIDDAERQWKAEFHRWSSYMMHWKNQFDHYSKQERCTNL
Method: (§2) The experiments were carried out using Biacore T100 with the Sensor Chip CM5. The chip surface was activated following standard NHS + EDC with Biacore PBS-EP (0.02 M Phosphate buffer with 2.7 mM KCl, 0.137 M NaCl and 0.05% P20) buffer used as the running buffer. 7000 RU of untagged AChE or 6600 RU of untagged BuChE was immobilized per flow cell and 100 μg/mL AChE or 20 μg/mL BuChE was injected. The cholinesterase protein is coupled to the sensor chip CM5 by amine coupling. 1 M (pH 8.5) ethanolamine-HCl was used to seal off the active group. Aaptamine was injected into the protein channel and blank channel at the following doses: 100, 50, 25, 12.5, 6.25, 3.125 and 0.39 μM at a flow rate of 30 μL/min. The protein binding period was set to 1 min, and the dissociation period was set to 2 min. The affinity was obtained by fitting the binding data using Biacore T100 Evaluation Software version 3.0 (Chicago, USA).

[5] = biological target: T1, BuChE; assay: biochemical; settings: substrate BTChI, 37 °C; read-out: IC50 against BuChE
Method: (§3) AChE (200 U/g from electric eel) and 5,5′-dithiobis(2-nitrobenzoic acid) (DNTB) were purchased from Macklin Inc. (Shanghai, China). BuChE (10 U/mg from horse serum), acetylthiocholine iodide (ATChI) and butyrylthiocholine iodide (BTChI) were purchased from Shanghai Yuanye Bio-Technology (Shanghai, China).
(§4) The lyophilized powder of AChE and BuChE was dissolved in protein stabilizer (0.1 g BSA dissolved in 100 mL PBS) to form the storage concentration of 10 U/mL and then diluted to the required concentrations. […] After 30 min of incubation at 37 °C, 10 μL of substrate ATChI or BTChI (10 mM) were added and incubated at 37 °C for 30 min. […] For the blank control group, the assays were carried out with wells containing all components except AChE and BuChE. […] All experiments were performed in triplicate.

[6] = biological target: T2, AChE; assay: biochemical; settings: substrate ATChI, 37 °C; read-out: IC50 against AChE
Method: as §3, §4

[7] = biological target: T2, AChE; assay: Kinetic study of AChE inhibition (Lineweaver-Burk, secondary plot); format: biochemical
Method: as §1

[8] = system: nicotinic acetylcholine receptors (nAChRs); settings: ref Kudryavtsev et al. [2014]; cited from earlier work; remark: listed apart in the source
[9] = biological target: T1, BuChE; assay: Surface plasmon resonance (SPR) assay, BuChE; format: binding; settings: Biacore T100, steady-state affinity fitting; read-out: Kd (equilibrium dissociation constant) for BuChE
Method: as §2

[10] = system: BuChE; settings: ref Moodie et al. [2019]; read-out: IC50 against BuChE (literature); cited from earlier work
[11] = system: AChE; settings: ref Moodie et al. [2019]; read-out: IC50 against AChE (literature); cited from earlier work

COc1cc2c(cc1OC)C(=O)C(CC1CCN(Cc3ccccc3)CC1)C2 (centres unmarked) [donepezil, reference compound]
dyskinesia recovery rate ([1]; 8 μM): 63.7% | efficacy on speed change ([1]; 8.0 μM): 63.6% | speed change after light stimulus ([1]; 8.0 μM): 2.13 mm/s | movement distance during 60 min ([1]; 8 μM): 7675 mm

COc1cc2ccnc3c2c(c1OC)NC=C3 [aaptamine]
inhibition type towards BuChE ([2]; Lineweaver-Burk plots): mixed-type inhibition | Ki ([2]; secondary plot of slope vs inhibitor concentration, substrate BTChI, read-out: steady-state inhibition constant Ki against BuChE): 6.35 ± 0.02 µM | inhibitory effect on nAChRs of humans [3]: weak inhibitory effect | Kd [4]: 87.6 µM | IC50 [5]: 4.6 µM | IC50 [6]: 16 µM | inhibition type towards AChE ([7]; Lineweaver-Burk plots): mixed-type inhibition | Ki ([7]; secondary plot of slope vs inhibitor concentration, substrate ATChI, read-out: steady-state inhibition constant Ki against AChE): 6.96 ± 0.04 µM | inhibitory effect on nAChRs of Torpedo californica [8]: weak inhibitory effect | dyskinesia recovery rate ([1]; 5 μM): 34.8% | efficacy on speed change ([1]; 5 μM): 34.7% | speed change after light stimulus ([1]; 5 μM): 1.79 mm/s | movement distance during 60 min ([1]; 5 μM): 6447 mm | dyskinesia recovery rate ([1]; 10 μM): 58.8% | efficacy on speed change ([1]; 10 μM): 58.5% | speed change after light stimulus ([1]; 10 μM): 2.07 mm/s | movement distance during 60 min ([1]; 10 μM): 7466 mm | dyskinesia recovery rate ([1]; 20 μM): 60.0% | efficacy on speed change ([1]; 20 μM): 60.2% | speed change after light stimulus ([1]; 20 μM): 2.09 mm/s | movement distance during 60 min ([1]; 20 μM): 7517 mm | Kd [9]: 10.7 µM

COc1ccc2c3c1O[C@H]1C[C@@H](O)C=C[C@@]31CCN(C)C2 [galantamine]
IC50 [11]: […]
